{"source": "PubChem BioAssay AID248", "about": "(DTP/NCI, 2004)", "tested_on": "L1210 leukemia ip in BDF1 mice, survival T/C", "assay": "NCI In Vivo Anticancer Drug Screen. Data for tumor model L1210 Leukemia (intraperitoneal) in B6D2F1 (BDF1) mice", "conditions": "endpoint: mean survival time, higher = longer survival", "procedure,_shortened": "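Value reflects the ratio of survival in compound-treated mice to survival in vehicle-treated controls, with both groups carrying the same transplanted tumor.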", "key": {"[1]": {"conditions": "dose: 100.0 mg/kg/injection, schedule: Q01DX001 (ip), vehicle: saline"}, "[2]": {"conditions": "dose: 200.0 mg/kg/injection, schedule: Q01DX001 (ip), vehicle: saline"}, "[3]": {"conditions": "dose: 400.0 mg/kg/injection, schedule: Q01DX001 (ip), vehicle: saline"}, "[4]": {"conditions": "dose: 100.0 mg/kg/injection, schedule: Q04DX002 (ip), vehicle: saline with Tween-80"}, "[5]": {"conditions": "dose: 200.0 mg/kg/injection, schedule: Q04DX002 (ip), vehicle: saline with Tween-80"}, "[6]": {"conditions": "dose: 400.0 mg/kg/injection, schedule: Q04DX002 (ip), vehicle: saline with Tween-80"}, "[7]": {"conditions": "dose: 100.0 mg/kg/injection, schedule: Q04DX003 (ip), vehicle: Klucel (hydroxypropylcellulose) (HPC)"}, "[8]": {"conditions": "dose: 200.0 mg/kg/injection, schedule: Q04DX003 (ip), vehicle: Klucel (hydroxypropylcellulose) (HPC)"}, "[9]": {"conditions": "dose: 400.0 mg/kg/injection, schedule: Q04DX003 (ip), vehicle: Klucel (hydroxypropylcellulose) (HPC)"}, "[10]": {"conditions": "dose: 100.0 mg/kg/injection, schedule: Q04DX003 (ip), vehicle: saline with Tween-80"}, "[11]": {"conditions": "dose: 200.0 mg/kg/injection, schedule: Q04DX003 (ip), vehicle: saline with Tween-80"}, "[12]": {"conditions": "dose: 400.0 mg/kg/injection, schedule: Q04DX003 (ip), vehicle: saline with Tween-80"}}, "note": "Values joined by “and” are separate entries in the source; they are usually repeats but may differ in a detail not shown here. Equal values may be shown once. Inconclusive results and toxic doses are left out.", "data": [{"smiles": "CS(=O)(=O)OCCN(CCOS(C)(=O)=O)c1ccc(N=O)c(F)c1", "values": [{"measurement": "T/C", "setting": "dose: 7.0 mg/kg/injection, schedule: Q01DX001 (ip), vehicle: saline", "result": "151 % of control"}, {"measurement": "T/C", "setting": "dose: 40.0 mg/kg/injection, schedule: Q01DX001 (ip), vehicle: saline", "result": "98 % of control"}, {"measurement": "T/C", "setting": "dose: 80.0 mg/kg/injection, schedule: Q01DX001 (ip), vehicle: saline", "result": "93 % of control"}]}, {"smiles": "COC(=O)C1OC(CO)C(O)C1O", "note": "(stereo not given)", "values": [{"measurement": "T/C", "setting": "[1]", "result": "105 % of control"}, {"measurement": "T/C", "setting": "dose: 100.0 mg/kg/injection, schedule: Q04DX003 (ip), vehicle: saline", "result": "110 % of control"}, {"measurement": "T/C", "setting": "[2]", "result": "113 % of control"}, {"measurement": "T/C", "setting": "dose: 200.0 mg/kg/injection, schedule: Q04DX003 (ip), vehicle: saline", "result": "107 % of control"}, {"measurement": "T/C", "setting": "[3]", "result": "97 % of control"}, {"measurement": "T/C", "setting": "dose: 400.0 mg/kg/injection, schedule: Q04DX003 (ip), vehicle: saline", "result": "110 % of control"}]}, {"smiles": "Clc1cc(Cl)c2nc(-c3ccc(Cl)c(Cl)c3)cc(C3CO3)c2c1", "note": "(stereo not given)", "values": [{"measurement": "T/C", "setting": "[1]", "result": "94 % of control"}, {"measurement": "T/C", "setting": "[2]", "result": "105 % of control"}, {"measurement": "T/C", "setting": "[3]", "result": "100 % of control"}]}, {"smiles": "CC(=O)/C=C/c1c[nH]c(=O)[nH]c1=O", "values": [{"measurement": "T/C", "setting": "[4]", "result": "104 % of control"}, {"measurement": "T/C", "setting": "[5]", "result": "104 % of control"}, {"measurement": "T/C", "setting": "[6]", "result": "93 % of control"}]}, {"smiles": "COc1cc2ccc(CC(=O)NCCc3ccc4c(c3)OCO4)cc2cc1OC", "values": [{"measurement": "T/C", "setting": "dose: 100.0 mg/kg/injection, schedule: Q01DX009 (ip), vehicle: Klucel (hydroxypropylcellulose) (HPC)", "result": "97 % of control"}, {"measurement": "T/C", "setting": "[7]", "result": "97 % of control"}, {"measurement": "T/C", "setting": "dose: 200.0 mg/kg/injection, schedule: Q01DX009 (ip), vehicle: Klucel (hydroxypropylcellulose) (HPC)", "result": "90 % of control"}, {"measurement": "T/C", "setting": "[8]", "result": "102 % of control"}, {"measurement": "T/C", "setting": "dose: 400.0 mg/kg/injection, schedule: Q01DX009 (ip), vehicle: Klucel (hydroxypropylcellulose) (HPC)", "result": "93 % of control"}, {"measurement": "T/C", "setting": "[9]", "result": "91 % of control"}]}, {"smiles": "COC(=O)c1ccccc1OC(=O)Nc1ccc(SC)cc1", "values": [{"measurement": "T/C", "setting": "dose: 50.0 mg/kg/injection, schedule: Q04DX002 (ip), vehicle: saline with Tween-80", "result": "96 % of control and 91 % of control"}, {"measurement": "T/C", "setting": "dose: 100.0 mg/kg/injection, schedule: Q01DX009 (ip), vehicle: saline with Tween-80", "result": "96 % of control"}, {"measurement": "T/C", "setting": "[4]", "result": "96 % of control and 104 % of control and 86 % of control"}, {"measurement": "T/C", "setting": "[10]", "result": "100 % of control"}, {"measurement": "T/C", "setting": "dose: 200.0 mg/kg/injection, schedule: Q01DX009 (ip), vehicle: saline with Tween-80", "result": "94 % of control and 89 % of control"}, {"measurement": "T/C", "setting": "[5]", "result": "95 % of control and 104 % of control"}, {"measurement": "T/C", "setting": "[11]", "result": "98 % of control"}, {"measurement": "T/C", "setting": "dose: 400.0 mg/kg/injection, schedule: Q01DX009 (ip), vehicle: saline with Tween-80", "result": "102 % of control and 115 % of control"}, {"measurement": "T/C", "setting": "[6]", "result": "93 % of control and 105 % of control and 107 % of control"}, {"measurement": "T/C", "setting": "[12]", "result": "97 % of control"}]}, {"smiles": "CCOC(=O)NC(CCl)NC(=O)OCC", "values": [{"measurement": "T/C", "setting": "[1]", "result": "95 % of control"}, {"measurement": "T/C", "setting": "[2]", "result": "101 % of control"}, {"measurement": "T/C", "setting": "[3]", "result": "103 % of control"}]}, {"smiles": "CC1CN1C(=O)OCCOC(=O)N1CC1C", "note": "(stereo not given)", "values": [{"measurement": "T/C", "setting": "dose: 200.0 mg/kg/injection, schedule: Q01DX Z (ip), vehicle: saline", "result": "108 % of control"}, {"measurement": "T/C", "setting": "dose: 444.0 mg/kg/injection, schedule: Q01DX009 (ip), vehicle: saline", "result": "104 % of control"}, {"measurement": "T/C", "setting": "dose: 450.0 mg/kg/injection, schedule: Q01DX Z (ip), vehicle: saline", "result": "188 % of control"}, {"measurement": "T/C", "setting": "dose: 666.0 mg/kg/injection, schedule: Q01DX009 (ip), vehicle: saline", "result": "107 % of control"}, {"measurement": "T/C", "setting": "dose: 675.0 mg/kg/injection, schedule: Q01DX Z (ip), vehicle: saline", "result": "195 % of control"}, {"measurement": "T/C", "setting": "dose: 750.0 mg/kg/injection, schedule: Q01DX001 (ip), vehicle: saline", "result": "117 % of control"}, {"measurement": "T/C", "setting": "dose: 1000.0 mg/kg/injection, schedule: Q01DX009 (ip), vehicle: saline", "result": "115 % of control"}, {"measurement": "T/C", "setting": "dose: 1500.0 mg/kg/injection, schedule: Q01DX001 (ip), vehicle: saline", "result": "106 % of control"}, {"measurement": "T/C", "setting": "dose: 1500.0 mg/kg/injection, schedule: Q01DX009 (ip), vehicle: saline", "result": "96 % of control"}]}, {"smiles": "O=C(NCCCCCCNC(=O)NCc1ccc(Cl)c(Cl)c1)NCc1ccc(Cl)c(Cl)c1", "values": [{"measurement": "T/C", "setting": "dose: 100.0 mg/kg/injection, schedule: Q01DX009 (ip), vehicle: other", "result": "97 % of control"}, {"measurement": "T/C", "setting": "dose: 200.0 mg/kg/injection, schedule: Q01DX009 (ip), vehicle: other", "result": "86 % of control"}, {"measurement": "T/C", "setting": "dose: 400.0 mg/kg/injection, schedule: Q01DX009 (ip), vehicle: other", "result": "95 % of control"}]}, {"smiles": "c1ccc(CNc2nn[nH]n2)cc1", "values": [{"measurement": "T/C", "setting": "[10]", "result": "96 % of control"}, {"measurement": "T/C", "setting": "[11]", "result": "96 % of control"}, {"measurement": "T/C", "setting": "[12]", "result": "94 % of control"}]}, {"smiles": "CCCCCCCC[Si](CCCCCCCC)CCCCCCCC", "values": [{"measurement": "T/C", "setting": "dose: 100.0 mg/kg/injection, schedule: Q04DX003 (ip), vehicle: acetone", "result": "95 % of control"}, {"measurement": "T/C", "setting": "dose: 200.0 mg/kg/injection, schedule: Q04DX003 (ip), vehicle: acetone", "result": "91 % of control"}, {"measurement": "T/C", "setting": "dose: 400.0 mg/kg/injection, schedule: Q04DX003 (ip), vehicle: acetone", "result": "98 % of control"}]}, {"smiles": "O=C1C=C(OCc2ccccc2)C(=O)C(OCc2ccccc2)=C1", "values": [{"measurement": "T/C", "setting": "[7]", "result": "93 % of control"}, {"measurement": "T/C", "setting": "[8]", "result": "96 % of control"}, {"measurement": "T/C", "setting": "[9]", "result": "95 % of control"}]}]}
